In US20120172397A1, “HEXAHYDROCYCLOPENTA[f]INDAZOLE 5-YL ETHANOLS AND DERIVATIVES THEREOF AS SELECTIVE GLUCOCORTICOID RECEPTOR MODULATORS” (MERCK SHARP & DOHME CORP., priority 2009, published 2012):
Where two headings read alike, the source gives them in different places.

Key:
[1] = test system: human GR (MMTV-LUC reporter gene, A549 cells); test: Trans-Activation Modulation of Glucocorticoid Receptor Assay (GRAMMER), MMTV-LUC reporter in A549 cells; format: cell-based; details: for EC50: MMTV-LUC reporter, agonist mode, read-out: Transactivation A549 Cells GRAMMER IP (inflection point); for Transactivation A549 Cells GRAMMER Emax / Emax: Emax relative to the activity obtained with 300 nM dexamethasone; for Emax: read-out: Transactivation A549 Cells GRAMMER Emax
Excerpt: Trans-Activation Modulation of Glucocorticoid Receptor Assay
This assay assesses the ability of test compounds to control transcription from the MMTV-LUC reporter gene in lung adenocarcinoma A549 cells or HeLa cells, a human […] cell line that naturally expresses the human GR. The assay measures induction of a modified MMTV LTR/promoter linked to the LUC reporter gene.
The routine transient assay consists of plating 7,000-25,000 cells/well of a white, clear-bottom 96-well plate. Alternatively, 384-well plates can be used at a cell concentration of 10,000 /well. The media that the cells are plated in is “exponential growth medium” which consists of phenol red-free RPMI1640 containing 10%FBS, 4 mM L-glutamine, 20 mM HEPES, 10 μg/mL human insulin, and 20 μg/mL gentamicin. Incubator conditions are 37° C. and 5% CO2. The transfection is done in batch mode. The cells are trypsinized and counted to the right cell number in the proper amount of fresh media. It is then gently mixed with the FuGene6/DNA mix and plated onto the 96 or 384-well plate, all the wells receive 100 μL or 40 μL, respectively, of medium +lipid/DNA complex then incubated 37° C. overnight. The transfection cocktail consists of serum-free OptiMEM, FuGene6 reagent and DNA. The manufacturer's (Roche Biochemical) protocol for cocktail setup is as follows: The lipid to DNA ratio is approximately 2.5:1 and the incubation time is 20 min at room temperature. Sixteen to 24 hours after transfection, the cells are treated with dexamethasone to a final concentration of 10 nM as well as the compound of interest, such that final DMSO (vehicle) concentration is equal to or less than 1%. Each plate also contains samples that are treated with 10 nM dexamethasone alone, which is used as the 100% activity control. The cells are exposed to the compounds for 24 hours. After 24 hours, the cells are lysed by a Promega cell culture lysis buffer for approximately 30 min and then the luciferase activity in the extracts is assayed in the 96-well format luminometer. In 384-well format, Steady-Glo (Promega) or Steady-Lite (PerkinElmer) can be used by adding an equal volume of reagent to the media present in each well. Activity induced by 10 nM dexamethasone alone is set at 100% activity. Antagonist activity is calculated by determining the decrease in dexamethasone-induced activity in response to compound treatment relative to samples that were treated with dexamethasone alone. Results are expressed as % inhibition of 10 nM dexamethasone activity or as fold of 10 nM dexamethasone activity. This transactivation assay can be performed in an agonist and antagonist mode to identify these different activities.
Activity of test compounds is calculated as the Emax relative to the activity obtained with 300 nM dexamethasone. Activity of test compounds is calculated as the Emax relative to the activity obtained with 300 nM DEX. The exemplified tissue selective glucocorticoid receptor modulators of the present invention display agonist activity in this assay of greater than 5% and less than 100%, and maximal transactivation activity less then maximal transrepression activity. […]

[2] = test system: human GR (TNFα promoter β-lactamase reporter, U937 cells); test: Transrepression Assay (GITAR), TNFα-β-lactamase reporter in U937 cells; format: cell-based; details: for EC50: TNFα-β-lactamase reporter, PMA/LPS stimulated, read-out: Transrepression U937 Cells GITAR IP (inflection point); for Transrepression U937 Cells GITAR Emax / Emax: activity repressed by 100 nM dexamethasone set as 100%
Excerpt: This assay assesses the ability of test compounds to control transcription from the TNFα-β-lactamase reporter gene in U937 cells, a human myelomonocytic leukemia cell line that naturally expresses the human GR. The assay measures compound dependent-repression of the TNFa promoter linked to a reporter gene.
The human U937cells that had been stablely transfected with the TNF-α promoter driving β-lactamase are used for this assay. U937 cells contain an endogenous glucocorticoid receptor (GR). Cells are maintained in RPMI 1640 Growth medium (Gibco Cat#11875-093) containing 25 mM HEPES, 10% FBS, 2 mM L-Glutamine, 1 mM Sodium pyruvate, 25 μg/ml Gentamicin (Gibco Cat#15710-064), 1:1000 2-Mercaptoethanol (Gibco Cat#21985-023) and 0.8 mg/ml G418 (Gibco Cat#10131-027). The density of the cells in the flask needs to be about 1×106−3×10^6/ml at the time of harvest. Usually, the cells are split to 1.2˜1.4×10^5/ml (1:10) 3 days prior to the assay. 50,000 cells/well are plated in 96 well black-walled plates the day of assay. Test compounds are added 10 μL/well, and cells are incubated at 37° C. for 30-45 min. For assaying compounds, first dilute 1:10 in DMSO to make 1 mM, then further dilute 1:100 in medium to make 10 × stock prior to adding to the cells. Add 50 ng/ml PMA (Sigma, cat# P8139) 10 μL/well to a final concentration 5 ng/ml, and 1 μg/ml LPS (Sigma, cat# L4130) 10 μL/well to a final concentration 100 ng/ml. Incubate cells at […] overnight for˜18 hr. PMA is stored frozen as 100 μg/ml stock in DMSO. Dilute 1:10 in DMSO for a working stock of 10 μg/ml and store at −20° C. For assaying, dilute the 10 μg/ml working stock 1:200 in medium to make a 10× solution (50 ng/ml). Store frozen LPS at 1 mg/ml in PBS, dilute 1:1000 in medium to make 10× (1 μg/ml) for the assay. Add 6× loading buffer (CCF2-AM) 20 μL/well, and incubate at room temperature for 70˜90 min. […] The activity repressed by 100 nM dexamethasone alone is set as 100% activity.

[3] = Homo sapiens, U-937, U937 cells

Compound | EC50 ([1]; A549 cells) [nM] | Transactivation A549 Cells GRAMMER Emax ([1]; A549 cells) [%] | EC50 ([2]; U937 cells) [nM] | Transrepression U937 Cells GITAR Emax ([2]; U937 cells) [%] | EC50 ([1]; Homo sapiens, A549, A549 cells) [nM] | Emax ([1]; Homo sapiens, A549, A549 cells) [%] | EC50 [2, 3] [nM] | Emax [2, 3] [%]
C[C@]12Cc3cnn(-c4cccnc4)c3C=C1CC[C@@H]2CC(O)c1ccccn1 (single isomer, unassigned) [Example 6b] | 1430 | 2.2 | 1380 | 30.0 | – | – | – | –
COc1ccc(C(O)C[C@H]2CCC3=Cc4c(cnn4-c4cccnc4)C[C@@]32C)cc1 (stereo partly drawn) [Example 5, 1-(4-methoxyphenyl)-2-[(4αR,5R)-4α-methyl-1-(pyridin-3-yl)-1,4,4α,5,6,7-hexahydrocyclopenta[f]indazol-5-yl] ethanol] | – | – | – | – | 53.4 | 90.7 | 20.7 | 87.3
CC(O)(C[C@H]1CCC2=Cc3c(cnn3-c3cccnc3)C[C@@]21C)c1ccccc1 (single isomer, unassigned) [Example 7a] | 74.3 | 53.1 | 78.7 | – | – | – | – | 84.2
C[C@]12Cc3cnn(-c4cccnc4)c3C=C1CC[C@@H]2CC(O)c1ccccc1 (single isomer, unassigned) [Example 1a] | 343 | 29.7 | 277 | 75.4 | – | – | – | –
COc1cccc(C(O)C[C@H]2CCC3=Cc4c(cnn4-c4cccnc4)C[C@@]32C)c1 (single isomer, unassigned) [Example 4b] | 797 | 15.3 | 548 | 47.0 | – | – | – | –
COc1cccc(C(O)C[C@H]2CCC3=Cc4c(cnn4-c4cccnc4)C[C@@]32C)c1 (single isomer, unassigned) [Example 4a] | – | 47.7 | 114 | 74.8 | 472 | – | – | –
COc1ccccc1C(O)C[C@H]1CCC2=Cc3c(cnn3-c3cccnc3)C[C@@]21C (single isomer, unassigned) [Example 2b] | 812 | 21.5 | 1160 | – | – | – | – | 73.9
C[C@]12Cc3cnn(-c4cccnc4)c3C=C1CC[C@@H]2CC(O)c1ccccn1 (single isomer, unassigned) [Example 6a] | – | – | 558 | – | 1170 | 1.6 | – | 16.6
C[C@]12Cc3cnn(-c4cccnc4)c3C=C1CC[C@@H]2CC(O)c1ccccc1 (single isomer, unassigned) [Example 1b] | 811 | 8.5 | 1720 | 49.3 | – | – | – | –
COc1ccccc1C(O)C[C@H]1CCC2=Cc3c(cnn3-c3cccnc3)C[C@@]21C (single isomer, unassigned) [Example 2a] | 301 | 68.5 | 229 | 79.5 | – | – | – | –
CC(O)(C[C@H]1CCC2=Cc3c(cnn3-c3cccnc3)C[C@@]21C)c1ccccc1 (single isomer, unassigned) [Example 7b] | 316 | 20.0 | 393 | 65.9 | – | – | – | –
COc1ccc(C(O)C[C@H]2CCC3=Cc4c(cnn4-c4cccnc4)C[C@@]32C)cn1 (stereo partly drawn) [Example 3, 1-(6-methoxypyridin-3-yl)-2-[(4αR,5R)-4α-methyl-1-(pyridin-3-yl)-1,4,4α,5,6,7-hexahydrocyclopenta[f]indazol-5-yl] ethanol] | – | – | – | – | 160 | 101 | 200 | 85.2
